Assay results taken from US7915282B2, “C2-phenyl-substituted cyclic keto-enols used as pesticides and herbicides” (Bayer Aktiengesellschaft, priority 2000, dated 2011).

Legend:
Type in all cases: in vivo
[1] = test system: green rice leaf hopper (Nephotettix cincticeps); assay: Nephotettix test; settings: active compound concentration of 1000 ppm; after 6 days; rice seedlings dipped
Protocol: [table] To produce a suitable preparation of active compound, 1 part by weight of active compound is mixed with the stated amounts of solvent and emulsifier, and the concentrate is diluted with emulsifier-containing, water to the desired concentration. Rice seedlings (Oryza sativa) are treated by being dipped into the preparation of active compound of the desired concentrated and are populated with the green rice leaf hopper (Nephotettix cincticeps) while the leaves are still moist. After the desired period of time, the kill in % is determined. 100% means that all leaf hoppers have been killed; 0% means that none of the leaf hoppers have been killed.

Digitaria [2] = assay: Post-emergence test; settings: after three weeks
Protocol: (§1) [table] To produce a suitable preparation of active compound, 1 part by weight of active compound is mixed with the stated amount of solvent, the stated amount of emulsifier is added and the concentrate is diluted with water to the desired concentration. Test plants of a height of 5-15 cm are sprayed with the preparation of active compound such that the particular amounts of active compound desired are applied per unit area. The concentration of the spray liquor is chosen such that the particular amount of active compound desired is applied in 1000 l of water/ha. After three weeks, the degree of damage to the plants is rated in % damage in comparison to the development of the untreated control. The figures denote: [table]

Avena fatua [3] = assay: Post-emergence test; settings: after three weeks
Protocol: as §1

Sugar beet [4] = assay: Post-emergence test; settings: after three weeks
Protocol: as §1

Cotton = assay: Post-emergence test; settings: after three weeks
Protocol: as §1

Setaria [5] = assay: Post-emergence test; settings: after three weeks
Protocol: as §1

Alopecurus [6] = assay: Post-emergence test; settings: after three weeks
Protocol: as §1

Digitaria [7] = assay: Pre-emergence test; settings: 125 g ai/ha, after three weeks
Protocol: (§2) [table] To produce a suitable preparation of active compound, 1 part by weight of active compound is mixed with the stated amount of solvent, the stated amount emulsifier is added and the concentrate is diluted with water to the desired concentration. Seeds of the test plants are sown in normal soil. After about 24 hours, the soil is sprayed with the preparation of active compound such that the particular amounts of active compound desired are applied per unit area. The concentration of the spray liquor is chosen such that the particular amounts of active compound desired are applied in 1000 l of water/ha. After three weeks, the degree of damage to the plants is rated in % damage in comparison to the development of the untreated controls. The figures denote: [table]

Lolium [8] = assay: Pre-emergence test; settings: after three weeks
Protocol: as §2

Sugar beet [9] = assay: Pre-emergence test; settings: after three weeks
Protocol: as §2

Veronica = assay: Pre-emergence test; settings: 125 g ai/ha, after three weeks
Protocol: as §2

Setaria [10] = assay: Pre-emergence test; settings: after three weeks
Protocol: as §2

Soya bean = assay: Pre-emergence test; settings: after three weeks
Protocol: as §2

Alopecurus [11] = assay: Pre-emergence test; settings: after three weeks
Protocol: as §2

Lolium [12] = assay: Post-emergence test; settings: after three weeks
Protocol: as §1

Sorghum = assay: Post-emergence test; settings: after three weeks
Protocol: as §1

Echinochloa [13] = assay: Pre-emergence test; settings: 60 g ai/ha, after three weeks
Protocol: as §2

Avena fatua [14] = assay: Pre-emergence test; settings: after three weeks
Protocol: as §2

[15] = test system: peach aphids (Myzus persicae); assay: Myzus test; settings: active compound concentration of 1000 ppm; after 6 days; infested cabbage leaves dipped
Protocol: [table] To produce a suitable preparation of active compound, 1 part by weight of active compound is mixed with the stated amounts of solvent and emulsifier, and the concentrate is diluted with emulsifier-containing water to the desired concentration. Cabbage leaves (Brassica oleracea) which are heavily infested by the peach aphids (Myzus persicae) are treated by being dipped into the preparation of active compound of the desired concentration. After the desired period of time, the kill in % is determined. 100% means that all aphids have been killed; 0% means that none of the aphids have been killed.

[16] = test system: greenhouse red spider mite (Tetranychus urticae); assay: Tetranychus test (OP-resistant/dip treatment); settings: active compound concentration of 1000 ppm; after 7 days; infested bean plants dipped
Protocol: [table] To produce a suitable preparation of active compound, 1 part by weight of active compound is mixed with the stated amounts of solvent and emulsifier, and the concentrate is diluted with emulsifier-containing water to the desired concentration. Bean plants (Phaseolus vulgaris) which are heavily infested by all stages of the greenhouse red spider mite (Tetranychus urticae) are dipped into a preparation of active compound of the desired concentration. After the desired period of time, the effect in % is determined. 100% means that all spider mites have been killed; 0% means that none of the spider mites have been killed.

[17] = test system: larvae of the mustard beetle (Phaedon cochleariae); assay: Phaedon larvae test; settings: active compound concentration of 1000 ppm; after 7 days; cabbage leaves dipped
Protocol: (§3) [table] To produce a suitable preparation of active compound, 1 part by weight of active compound is mixed with the stated amounts of solvent and emulsifier, and the concentrate is diluted with emulsifier-containing water to the desired concentration. Cabbage leaves (Brassica oleracea) are treated by being dipped into the preparation of active compound of the desired concentration and are populated with larvae of the mustard beetle (Phaedon cochleariae) while the leaves are still moist. After the desired period of time, the kill in % is determined. 100% means that all beetle larvae have been killed; 0% means that none of the beetle larvae have been killed.

white fly Bemisia tabaci = assay: Bemisia test; settings: active compound concentration of 1000 ppm; after 10 days; infested cotton plants dipped
Protocol: [table] To produce a suitable preparation of active compound, 1 part by weight of active compound is mixed with the stated amounts of solvent and emulsifier, and the concentrate is diluted with emulsifier-containing water to the desired concentrations. Cotton plants (Gossypium hirsutum) which are infested by eggs, larvae and pupae of the white fly Bemisia tabaci are dipped into a preparation of active compound of the desired concentration. After the desired period of time, the kill in % is determined. 100% means that all animals have been killed; 0% means that none of the animals have been killed.

Wheat [18] = assay: Post-emergence test; settings: 60 g ai/ha, after three weeks
Protocol: as §1

Maize = assay: Pre-emergence test; settings: after three weeks
Protocol: as §2

Bromus = assay: Pre-emergence test; settings: after three weeks
Protocol: as §2

Echinochloa [19] = assay: Post-emergence test; settings: 60 g ai/ha, after three weeks
Protocol: as §1

Wheat [20] = assay: Pre-emergence test; settings: 60 g ai/ha, after three weeks
Protocol: as §2

[21] = test system: caterpillars of the owlet moth (Plutella xylostella); assay: Plutella test; settings: active compound concentration of 1000 ppm; after 7 days; cabbage leaves dipped
Protocol: as §3, with “caterpillars” for “larvae”, “owlet moth (Plutella xylostella)” for “mustard beetle (Phaedon cochleariae)”, “caterpillars” for “beetle larvae”

CCc1cc(C)cc(C)c1C1=C(O)C2(CCC(C)CC2)NC1=O (stereo not shown) [Example I-1-a-9]
kill in % [1]: 100% | % damage Digitaria (Digitaria [2]; 15 g ai/ha): 95% | % damage Avena fatua (Avena fatua [3]; 15 g ai/ha): 95% | % damage Sugar beet (Sugar beet [4]; 15 g ai/ha): 10% | % damage Cotton (Cotton; 15 g ai/ha): 0% | % damage Setaria (Setaria [5]; 15 g ai/ha): 100% | % damage Alopecurus (Alopecurus [6]; 15 g ai/ha): 100% | % damage Digitaria (Digitaria [7]): 100% | % damage Lolium (Lolium [8]; 125 g ai/ha): 100% | % damage Sugar beet (Sugar beet [9]; 125 g ai/ha): 0% | % damage Veronica (Veronica): 90% | % damage Setaria (Setaria [10]; 125 g ai/ha): 100% | % damage Soya bean (Soya bean; 125 g ai/ha): 0% | % damage Alopecurus (Alopecurus [11]; 125 g ai/ha): 100%

CCc1cc(CC)c(C2=C(O)C3(CCC(OC)CC3)NC2=O)c(CC)c1 (stereo not shown) [Example I-1-a-6]
% damage Digitaria (Digitaria [2]; 125 g ai/ha): 95% | % damage Lolium (Lolium [12]; 125 g ai/ha): 80% | % damage Sorghum (Sorghum; 125 g ai/ha): 100% | % damage Setaria (Setaria [5]; 125 g ai/ha): 95% | % damage Echinochloa (Echinochloa [13]): 90% | % damage Avena fatua (Avena fatua [14]; 60 g ai/ha): 80% | % damage Alopecurus (Alopecurus [11]; 60 g ai/ha): 90% | kill in % [15]: 100%

C=Cc1cc(C)cc(C)c1C1=C(OC(=O)C(C)(C)C)C2(CCC(OC)CC2)OC1=O (stereo not shown) [Example I-2-b-8]
kill in % [16]: 100% | kill in % [17]: 100%

CCc1cc(C)cc(C)c1C1=C(O)C2(CCC(OC)CC2)OC1=O (stereo not shown) [Example I-2-a-4]
kill in % (white fly Bemisia tabaci): 100% | kill in % [16]: 100% | kill in % [1]: 100% | % damage Lolium (Lolium [12]; 60 g ai/ha): 95% | % damage Avena fatua (Avena fatua [3]; 60 g ai/ha): 80% | % damage Wheat (Wheat [18]): 0% | % damage Sorghum (Sorghum; 60 g ai/ha): 80% | % damage Cotton (Cotton; 60 g ai/ha): 0% | % damage Alopecurus (Alopecurus [6]; 60 g ai/ha): 95% | % damage Maize (Maize; 125 g ai/ha): 5% | % damage Lolium (Lolium [8]; 125 g ai/ha): 100% | % damage Avena fatua (Avena fatua [14]; 125 g ai/ha): 80% | % damage Sugar beet (Sugar beet [9]; 125 g ai/ha): 0% | % damage Setaria (Setaria [10]; 125 g ai/ha): 100% | % damage Soya bean (Soya bean; 125 g ai/ha): 0% | % damage Bromus (Bromus; 125 g ai/ha): 70% | % damage Alopecurus (Alopecurus [11]; 125 g ai/ha): 100% | kill in % [15]: 100%

CCc1cc(C)cc(C)c1C1=C(OC(=O)C(C)(C)C)C2(CCCCC2)OC1=O [Example I-2-b-9]
kill in % (white fly Bemisia tabaci): 100% | kill in % [1]: 100%

CCc1cc(C)cc(C)c1C1=C(O)C(C)(C)NC1=O [Example I-1-a-8]
kill in % [1]: 100% | % damage Digitaria (Digitaria [2]; 60 g ai/ha): 95% | % damage Echinochloa (Echinochloa [19]): 100% | % damage Sugar beet (Sugar beet [4]; 60 g ai/ha): 10% | % damage Sorghum (Sorghum; 60 g ai/ha): 95% | % damage Cotton (Cotton; 60 g ai/ha): 0% | % damage Setaria (Setaria [5]; 60 g ai/ha): 100% | % damage Maize (Maize; 60 g ai/ha): 10% | % damage Lolium (Lolium [8]; 60 g ai/ha): 100% | % damage Avena fatua (Avena fatua [14]; 60 g ai/ha): 90% | % damage Sugar beet (Sugar beet [9]; 60 g ai/ha): 0% | % damage Wheat (Wheat [20]): 0% | % damage Setaria (Setaria [10]; 60 g ai/ha): 100% | % damage Soya bean (Soya bean; 60 g ai/ha): 0% | % damage Bromus (Bromus; 60 g ai/ha): 100% | % damage Alopecurus (Alopecurus [11]; 60 g ai/ha): 100% | kill in % [21]: 100%

C=Cc1cc(C)c(C2=C(OC(=O)C(C)(C)C)C3(CCC(C)CC3)OC2=O)c(C)c1 (stereo not shown) [Example I-2-b-6]
kill in % [17]: 100% | kill in % [15]: 100%

C=Cc1cc(C)c(C2=C(OC(=O)C(C)(C)C)C3(CCCCC3)OC2=O)c(C)c1 [Example I-2-b-2]
kill in % [16]: 100%
